Laboratory results as given in patent US20050154060A1, “Anti-inflamatory inhalation pharmaceutical composition” (Galephar Pharmaceutical Research, Inc., priority 2003, published 2005).

Tests used:
[1] = tested on: interleukine 6 (IL-6); assay: Sputum IL-6 in 12-week placebo controlled study of NAL DPI in COPD patients; type: in vivo, human (COPD patients); conditions: for concentration in IL-6 decreased by: sputum, after 12 weeks of treatment
Procedure: (§1) A new clinical trial has been performed with a dry powder inhaler (DPI) formulation of NAL in moderate to severely ill COPD patients. The study was performed with two doses of NAL DPI: 20 mg twice a day and 40 mg twice a day versus placebo.
(§2) The complete title of the study was “A 12-week, multicentre, randomised, double-blind, placebo controlled, pilot study of the safety and efficacy of Nacystelyn (20 mg b.i.d. and 40 mg b.i.d.) in patients with chronic obstructive pulmonary disease (COPD).”
(§3) NAL pulmonary administration was performed using a Dry Powder Inhaler consisting of a capsule containing NAL and a carrier, and of an inhalation device.
(§4) During the same study, sputum of COPD patients was collected at baseline (T0), after 4 weeks (w4) and after 12 weeks of treatment (T12).
(§5) The purpose of collecting sputum was to assess if NAL DPI administration could affect (increase or decrease) lung inflammation parameters in such patients. Lung inflammation may be reflected by the sputum concentration of some pro-inflammatory markers, called cytokines, such as interleukine 6 (IL-6) and interleukine 8 (IL-8) or anti-inflammatory markers, such as interleukine 10 (IL-10).
(§6) After collection of the mucus, the said mucus was centrifugated and the cytokines IL-8 and IL-6 were quantified using a validated analytical method. It should be noted that only subjects presenting a quantifiable value of cytokines at the time considered were taken into account.

[2] = tested on: interleukine 8 (IL-8); assay: Sputum IL-8 in 12-week placebo controlled study of NAL DPI in COPD patients; type: in vivo, human (COPD patients)
Procedure: as §1, §2, §3, §4, §5, §6

[3] = sputum of COPD patients, NAL DPI 20 mg twice a day, week 4
[4] = sputum of COPD patients, NAL DPI 20 mg twice a day, week 12
[5] = sputum of COPD patients, NAL DPI 40 mg twice a day, week 4
[6] = sputum of COPD patients, NAL DPI 40 mg twice a day, week 12

## CC(=O)N[C@@H](CS)C(=O)O.NCCCC[C@H](N)C(=O)O [NAL, L-Lysine-N-Acetylcysteinate]
[1]; sputum of COPD patients, 20 mg and 40 mg twice a day
  effect on IL-6 in sputum (in words): decrease of IL-6 in the sputum of COPD patients in a dose related manner
[1]; [3]
  change in inflammatory marker IL-6, percent change versus baseline: 24%
[1]; [4]
  change in inflammatory marker IL-6, percent change versus baseline: −17%
[1]; [5]
  change in inflammatory marker IL-6, percent change versus baseline: 70%
[1]; [6]
  change in inflammatory marker IL-6, percent change versus baseline: −42%
[1]; NAL 20 mg
  concentration in IL-6 decreased by: 17%
[1]; NAL 40 mg
  concentration in IL-6 decreased by: 42%
[2]; sputum of COPD patients
  effect on IL-8 levels in sputum (in words): significantly decrease the IL-8 levels in the sputum
[2]; [3]
  change in inflammatory marker IL-8, percent change versus baseline: −13%
[2]; [4]
  change in inflammatory marker IL-8, percent change versus baseline: −17%
[2]; [5]
  change in inflammatory marker IL-8, percent change versus baseline: −2%
[2]; [6]
  change in inflammatory marker IL-8, percent change versus baseline: +3%
[2]; sputum, after 12 weeks of treatment, NAL 20 mg
  levels of IL-8 decreased by: 17%
[2]; sputum, after 12 weeks of treatment, NAL 40 mg
  levels of IL-8 increased by: 3%
